These are literature values, as cited in patent publication US6808938B2, “Method and apparatus for assaying a drug candidate to estimate a pharmacokinetic parameter associated therewith” (Biacore AB, priority 1999, dated 2004).

The conditions of this series: stated to explain lack of correlation at 500 μM in FIG. 7.

Turning to `CN1C(C(=O)Nc2ccccn2)=C(O)c2ccccc2S1(=O)=O` [Piroxicam], the Solubility is below 500 µM.

In general, Solubility refers to the concentration that dissolves in the medium under given conditions.
